Holding throughout (test): NCI-60 cell line screen, 48 h
Experiment [1] deals with HCT-15 colon.
Experiment [2] has as its system RPMI-8226 leukemia.
For experiment [3], the system named is EKVX NSCLC.
Experiment [4] has as its system SK-MEL-5 melanoma.
For experiment [5], the system named is OVCAR-3 ovarian.
The test system of experiment [6] is SF-268 CNS.
Experiment [7] relates to A498 renal.
In experiment [8] the test system is MDA-MB-435.
For experiment [9], the system named is ACHN renal.

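The compound was tested at five concentrations on cells cultured in 96-well plates, with a 48-hour exposure period. The concentration for 50% growth inhibition is given as GI50. TGI marks complete inhibition of growth.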

This note sets out measurements from PubChem BioAssay (NCI).

As for `Cc1[nH]c2ccccc2c1-c1cc(-c2cc(-c3c(C)[nH]c4ccccc34)nc(N)n2)nc(N)n1`, the TGI in [1], in experiment [2], in [3], in [4], in experiment [5] and in [6] was over 100 µM in each case. For the same compound, the TGI in experiment [7], in experiment [8] and in [9] was over 100 µM each time.
Take `CC1=C(C(=O)Nc2cc(=O)n(C)c(=O)n2C)C(c2ccc([N+](=O)[O-])cc2)C(C(=O)Nc2cc(=O)n(C)c(=O)n2C)=C(C)N1`: the TGI in experiment [1], in experiment [2], in [3], in experiment [5], in experiment [6] and in experiment [7] was over 100 µM throughout. The TGI in experiment [9] is over 100 µM.
Regarding `COc1cc(O)c2c(c1)C(=O)C=C(Cl)C2=O`, the TGI in experiment [1], in [2], in experiment [3], in [4], in experiment [5] and in experiment [6] was over 100 µM each time. Besides, the TGI in experiment [7] and in [9] was over 100 µM each time.
In the case of `CCOC(=O)C(=O)Nc1ccc(Cl)cc1C`, the TGI in experiment [1], in experiment [2], in experiment [3], in [4], in [5] and in [6] was over 100 µM each time. Further, the TGI in [9] was over 100 µM.
Take `CN(CCc1ccccn1)c1nc(=[N+](C)C)ss1`: the TGI in experiment [1], in [2], in [3], in experiment [4], in experiment [5] and in experiment [6] was over 100 µM throughout. For the same compound, the TGI in experiment [7] and in [9] was over 100 µM throughout.
In the case of `NCCN.NCCN.O=C[O-].O=C[O-].[Co+3].[O-][Cl+3]([O-])([O-])[O-]`, the GI50 in [1], in [2], in experiment [4], in experiment [5], in experiment [6] and in [7] was over 100 µM throughout. In addition, in experiment [9], the GI50 is over 100 µM. The TGI in experiment [1], in [2], in [4], in experiment [5], in [6] and in [7] was over 100 µM each time. Moreover, the TGI in experiment [9] was over 100 µM.
For the compound `Cc1ccccc1C(=O)Oc1ccc(O)cc1`, the TGI in experiment [1], in experiment [2], in experiment [3], in experiment [4], in [5] and in [6] was over 100 µM each time. Further, the TGI in experiment [7] and in [9] was over 100 µM throughout.
`O=C(Cc1nc2ccccc2s1)C(=O)Nc1cccc(Cl)c1`: the TGI in experiment [1], in experiment [2], in [3], in experiment [4], in experiment [5] and in experiment [6] was over 100 µM each time. The TGI in experiment [7] and in experiment [9] was over 100 µM each time.
Consider `COC(=O)CCC(=O)Nc1cc(Cl)ccc1Cl`, for which the TGI in experiment [1], in experiment [2], in experiment [3], in experiment [4], in experiment [5] and in [6] was over 100 µM throughout. In experiment [9], the TGI is over 100 µM.
In the case of `CC(C)C1CC2C(=O)N(c3ccccc3)C(=O)C2c2[nH]c3ccccc3c21` (centres undefined), the TGI in experiment [1] was over 100 µM; in experiment [2], over 100 µM; in experiment [3] it was over 100 µM; in [4] it was over 100 µM; in experiment [5], 38 µM; in experiment [7], over 100 µM. For the same compound, the TGI in experiment [9] stood at 38.3 µM.
As for `O=C(O)/C(Cl)=C(\Cl)C(=O)NC1C2CC3CC(C2)CC1C3` (centres undefined), the TGI in experiment [1], in experiment [2], in experiment [3], in experiment [4], in experiment [5] and in [6] was over 100 µM each time. Further, the TGI in [7] and in experiment [9] was over 100 µM each time.
As to `COc1ccc(C(=O)C(c2ccc(OC)cc2)C2OC(=O)C(Cl)=C2Cl)cc1` (centres undefined), the TGI in experiment [1], in experiment [2], in experiment [3], in [4], in [5] and in experiment [6] was over 100 µM each time. In experiment [9], this compound had a TGI of over 100 µM.
`COc1ccc(NC(=O)CC/C(CC(=O)C(C)(C)C)=N\NC(=O)C(N)=O)cc1`: the TGI in [1], in [3], in experiment [5], in [6] and in experiment [9] was over 100 µM throughout.
In the case of `CN(CC#N)C1CCCC[C@H]1O` (some centres undefined), the TGI in [1], in experiment [2], in [3], in experiment [4], in [5] and in experiment [6] was over 100 µM throughout. Also, the TGI in experiment [7] and in experiment [9] was over 100 µM in each case.
As for `CN(/N=C/c1cccc2cccnc12)c1ccc([N+](=O)[O-])cc1`, the TGI in [1], in [2], in experiment [3], in experiment [4], in [5] and in experiment [6] was over 100 µM in each case. Also, the TGI in experiment [7] and in [9] was over 100 µM each time.
For `CN1C(c2ccccc2)CS(=O)(=O)CS1(=O)=O` (centres undefined), the TGI in experiment [1] is over 100 µM; in experiment [3], over 100 µM; in experiment [4], over 100 µM; in experiment [5], 88.7 µM; in [6] it was over 100 µM; in experiment [7] it was over 100 µM. Besides, the TGI in experiment [9] was over 100 µM.
As to `Cc1ccc(C2NC(=O)c3ccccc3N2)s1` (centres undefined), the TGI was over 100 µM in experiment [1]; over 100 µM in experiment [2]; over 100 µM in experiment [3]; over 100 µM in experiment [4]; 50.2 µM in experiment [5]; over 100 µM in experiment [6]. For the same compound, the TGI in experiment [7] and in experiment [9] was over 100 µM in each case.
